From patent publication US20250206759A1, “FUSED RING COMPOUND, PHARMACEUTICAL COMPOSITION CONTAINING SAME, AND USE OF FUSED RING COMPOUND” (CHENGDU HYPERWAY PHARMACEUTICALS CO., LTD., priority 2022, published 2025)
Where two headings read alike, the source gives them in different places.

Key:
[1] = system: KRas G12D-mediated ERK phosphorylation; assay: Inhibition of KRas G12D-mediated ERK phosphorylation in AGS cells; type: cell-based; settings: read-out: AGS-pERK IC50
Method: Day 1: AGS cells were seeded into 384-well cell culture plates and cultured overnight in a 37° C., 5% CO2 incubator.
Day 2: The compounds were added to the plates using Echo550 and incubated for 3 h in a 37° C., 5% CO2 incubator. Then cells were fixed with paraformaldehyde, permeated with methanol, and blocked with the blocking solution. Finally, a mixed solution of primary antibodies (rabbit anti pERK, mouse anti GAPDH) was added, and the mixture was incubated at 4° C. overnight.
Day 3: The mixed solution of primary antibodies was discarded, and a mixed solution of secondary antibodies (goat anti rabbit 800CW, goat anti mouse 680RD) was added. The mixture was incubated at room temperature in the dark. Finally, the cell culture plate was washed with PBST, and then inverted for 1 minute of centrifugation. The fluorescence signal values were read with Odyssey CLx.
ERK phosphorylation was calculated according to the following formula: […]
X: log value of compound concentration.
Y: average value of relative expression of p-ERK between replicate wells.

[2] = Pharmacokinetics of compounds in rats (oral); type: in vivo, SD rats; settings: male SD rats
Method: Male SD rats were purchased from Shanghai SIPPR-Bk Lab Animal Co., Ltd. Each test compound was administered orally (3 rats per group) once to SD rats for pharmacokinetic study. The test compounds were prepared on the day of administration. The test compounds were suspended in 5% DMSO+95% saline, and then vortexed for 2 min and ultrasonicated for 5 min to prepare the administration system. The animals were fasted for 10-14 h before oral administration, and the feeding was resumed 4 h after administration. After oral administration by gavage, pharmacokinetic samples were collected from SD rats through the jugular vein. The collection time points were: before administration, 15 min, 30 min, 1 h, 2 h, 4 h, 6 h, 8 h and 24 h after administration. Three whole blood samples were collected at each time point, with a collection volume of about 0.2 mL, and anticoagulated with sodium heparin. After blood samples were collected, they were immediately placed on ice and centrifuged to separate plasma within 1 hour (centrifugation conditions: 6800 rpm, 6 min, 2-8° C.). The collected plasma was stored in a −80° C. refrigerator before analysis.

[3] = system: ASPC-1 cells; assay: 3D cell proliferation inhibition test (CellTiter-Glo), ASPC-1 cells; type: cell-based; settings: 7 days, read-out: ASPC-1 cells 3D CTG IC50
Method: (§1) The diluted compounds to be tested were added to 384-well low-adhesion cell culture plates by using a nanoliter pipetting system (LABCYTE, P-0200). Then, the cells were plated and incubated in a 37° C., […] incubator for 7 days. Afterward, CellTiter-Glo® […] reagent was added, and the luminescent values were read by an Envision multifunctional microplate reader (the luminescent signal is proportional to the amount of ATP in the system, and the ATP content directly represents the number of viable cells in the system). Finally, the IC50 values (half-maximal inhibitory concentration) of the compounds were obtained by the XLFIT software using the nonlinear fitting formula.
(§2) a) The diluted compounds to be tested were added to 384-well low-adsorption cell culture plates by using a nanoliter pipetting system.
(§3) b) Cells were seeded into the 384-well plates in a) and then centrifuged at 1000 rpm for 1 min at room temperature, with a final DMSO concentration of compound being 0.5%. The plates were then incubated in a 37° C., 5% CO2 constant temperature incubator for 7 days.
(§4) c) CellTiter-Glo® 3D was added to the 384-well cell culture plates in b), shaken in the dark, and incubated at room temperature.
(§5) d) The luminescence values were read by using an Envision multifunctional microplate reader.
(§6) The IC50 (half-maximal inhibitory concentration) values of the compounds were obtained by using XLFIT software according to the following nonlinear fitting formula:
(§7) [formula] • X: log value of compound concentration. • Y: inhibition rate (%)
(§8) Inhibition rate (%)=100×(average value of negative control−compound)/(average value of negative control−average value of positive control)
(§9) Positive control: Medium only.

[4] = system: GP2d cells; assay: 3D cell proliferation inhibition test (CellTiter-Glo), GP2d cells; type: cell-based; settings: 7 days, read-out: GP2d cells 3D CTG IC50
Method: as §1, §2, §3, §4, §5, §6, §7, §8, §9

[5] = male, SD, rat, plasma, po, 100 mg/kg, 100 mg/kg, read-out: AUC
[6] = male, SD, rat, plasma, po, 100 mg/kg, 100 mg/kg, read-out: Cmax

Compound	IC50 [1]	Cmax ([2]; 100 mg/kg)	IC50 ([1]; Homo sapiens, AGS)	AUC [2, 5]	Cmax [2, 6]	further results
4-(4-((1R,5S)-3,8-diazabicyclo[3.2.1]octan-3-yl)-8-fluoro-2-((3-(4-methoxyphenyl)tetrahydro-1H-pyrrolidin-7a(5H)-yl)methoxy)pyrido[4,3-d]pyrimidin-7-yl)-5,6-difluoronaphthalen-2-ol [Example 34]	27 nM					AUC ([2]; 10 mg/kg): 75 ng·h/mL; Cmax ([2]; 10 mg/kg): 25 ng/mL
CC1(C)OC(C)(C)c2cc([C@H]3CCC4(COc5nc(N6CC7CCC(C6)N7)c6cnc(-c7cc(O)cc8ccc(F)c(F)c78)c(F)c6n5)CCCN34)ccc21 (mixture of isomers) [Example 211]	0.96 nM	97 ng/mL				AUC ([2]; 100 mg/kg): 225 ng·h/mL
Oc1cc(-c2ncc3c(N4CC5CCC(C4)N5)nc(OCC45CCCN4[C@@H](c4ccc(Cl)c(Cl)c4)CC5)nc3c2F)c2c(F)c(F)ccc2c1 (mixture of isomers) [Example 220]			3.2 nM	140 ng·h/mL	38 ng/mL	
Oc1cc(-c2ncc3c(N4CC5CCC(C4)N5)nc(OCC45CCCN4[C@@H](c4cc(F)c(F)c(F)c4)CC5)nc3c2F)c2c(F)c(F)ccc2c1 (mixture of isomers) [Example 222]		82 ng/mL	1.1 nM	258 ng·h/mL		
CC1(C)OC(C)(C)c2cc([C@H]3CCC4(COc5nc(N6CC7CCC(C6)N7)c6cnc(-c7cc(O)cc8ccc(F)c(F)c78)c(F)c6n5)CCCN34)ccc21 (single isomer, unassigned) [Example 198]			0.72 nM	219 ng·h/mL	141 ng/mL	
Oc1cc(-c2ncc3c(N4C[C@H]5CC[C@@H](C4)N5)nc(OCC45CCCN4C(c4ccc6c(c4)COC6)CC5)nc3c2F)c2ccccc2c1 (stereo partly drawn) [Example 43, 4-(4-((1R,5S)-3,8-diazabicyclo[3.2.1]octan-3-yl)-2-((3-(1,3-dihydroisobenzofuran-5-yl)tetrahydro-1H-pyrrolidin-7a(5H)-yl)methoxy)-8-fluoropyrido[4,3-d]pyrimidin-7-yl)naphthalen-2-ol]	41 nM	164 ng/mL				AUC ([2]; 100 mg/kg): 537 ng·h/mL
Oc1cc(-c2ncc3c(N4CC5CCC(C4)N5)nc(OCC45CCCN4C(c4ccc(F)cc4)CC5)nc3c2F)c2c(F)c(F)ccc2c1 (stereo not drawn) [Example 108]	14 nM			2090 ng·h/mL	157 ng/mL	
CC1(C)OCc2cc(C3CCC4(COc5nc(N6C[C@H]7CC[C@@H](C6)N7)c6cnc(-c7cc(O)cc8ccc(F)c(F)c78)c(F)c6n5)CCCN34)ccc21 (stereo partly drawn) [Example 146, 4-(4-((1R,5S)-3,8-diazabicyclo[3.2.1]octan-3-yl)-2-((3-(1,1-dimethyl-1,3-dihydroisobenzofuran-5-yl)tetrahydro-1H-pyrrolizin-7a(5H)-yl)methoxy)-8-fluoropyrido[4,3-d]pyrimidin-7-yl)-5,6-difluoronaphthalen-2-ol]			11 nM	483 ng·h/mL	143 ng/mL	
CC1(C)OC(C)(C)c2cc(C3CCC4(COc5nc(N6C[C@H]7CC[C@@H](C6)N7)c6cnc(-c7cc(O)cc8ccccc78)c(F)c6n5)CCCN34)ccc21 (stereo partly drawn) [Example 149, 4-(4-((1R,5S)-3,8-diazabicyclo[3.2.1]octan-3-yl)-8-fluoro-2-((3-(1,1,3,3-tetramethyl-1,3-dihydroisobenzofuran-5-yl)tetrahydro-1H-pyrrolizin-7a(5H)-yl)methoxy)pyrido[4,3d]pyrimidin-7-yl)naphthalen-2-ol]	23 nM	148 ng/mL				AUC ([2]; 100 mg/kg): 1192 ng·h/mL
[2H]C1([2H])OCc2cc(C3CCC4(COc5nc(N6C[C@H]7CC[C@@H](C6)N7)c6cnc(-c7cc(O)cc8ccc(F)c(F)c78)c(F)c6n5)CCCN34)ccc21 (stereo partly drawn) [Example 151, 4-(4-((1R,5S)-3,8-diazabicyclo[3.2.1]octan-3-yl)-2-((3-(1,3-dihydroisobenzofuran-5-yl-1,1-d2)tetrahydro-1H-pyrrolizin-7a(5H)-yl)methoxy)-8-fluoropyrido[4,3-d]pyrimidin-7-yl)-5,6-difluoronaphthalen-2-ol]			7.6 nM			
Oc1cc(-c2ncc3c(N4C[C@H]5CC[C@@H](C4)N5)nc(OCC45CCCN4C(c4ccc6c(c4)C4CCC6O4)CC5)nc3c2F)c2c(F)c(F)ccc2c1 (stereo partly drawn) [Example 153, 4-(4-((1R,5S)-3,8-diazabicyclo[3.2.1]octan-3-yl)-8-fluoro-2-((3-(1,2,3,4-tetrahydro-1,4-epoxynaphthalen-6-yl)tetrahydro-1H-pyrrolizin-7a(5H)-yl)methoxy)pyrido[4,3d]pyrimidin-7-yl)-5,6-difluoronaphthalen-2-ol]	5.2 nM	156 ng/mL				AUC ([2]; 100 mg/kg): 458 ng·h/mL
CC1(C)OCc2ccc(C3CCC4(COc5nc(N6CC7CCC(C6)N7)c6cnc(-c7cc(O)cc8ccc(F)c(F)c78)c(F)c6n5)CCCN34)cc21 [Example 156, 4-(4-((1R,5S)-3,8-diazabicyclo[3.2.1]octan-3-yl)-2-((3-(3,3-dimethyl-1,3-dihydroisobenzofuran-5-yl)tetrahydro-1H-pyrrolizin-7a(5H)-yl)methoxy)-8-fluoropyridin[4,3-d]pyrimidin-7-yl)-5,6-difluoronaphthalen-2-ol]			15 nM	598 ng·h/mL	138 ng/mL	
Nc1cc(Cl)c(C(F)(F)F)c(-c2ncc3c(N4C[C@H]5CC[C@@H](C4)N5)nc(OCC45CCCN4C(c4ccc6c(c4)OC(F)(F)O6)CC5)nc3c2F)c1 (stereo partly drawn) [Example 161, 3-(4-((1R,5S)-3,8-diazabicyclo[3.2.1]octan-3-yl)-2-((3-(2,2-difluorobenzo[d][1,3]dioxy-5-yl)tetrahydro-1H-pyrrolizin-7a(5H)-yl)methoxy)-8-fluoropyridin[4,3-d]pyrimidin-7-yl)-5-chloro-4-(trifluoromethyl) aniline]		193 ng/mL				IC50 [3]: 46.9 nM; IC50 [4]: 10.9 nM; AUC ([2]; 100 mg/kg): 1080 ng·h/mL
C#Cc1c(F)ccc2cc(O)cc(-c3ncc4c(N5CC6CCC(C5)N6)nc(OCC56CCCN5C(c5ccc7c(c5)COC7)CC6)nc4c3F)c12 (stereo not drawn) [Example 178]			3.8 nM			
Oc1cc(-c2ncc3c(N4CC5CCC(C4)N5)nc(OCC45CCCN4C(c4ccc6c(c4)COCC6)CC5)nc3c2F)c2c(F)c(F)ccc2c1 (stereo not drawn) [Example 187]			13 nM	567 ng·h/mL	109 ng/mL	
C#Cc1c(F)ccc2cc(O)cc(-c3ncc4c(N5CC6CCC(C5)N6)nc(OCC56CCCN5C(c5ccc(F)cc5)CC6)nc4c3F)c12 (stereo not drawn) [Example 188]			5.2 nM	862 ng·h/mL	149 ng/mL	
Oc1cc(-c2ncc3c(N4CC5CCC(C4)N5)nc(OCC45CCCN4C(c4ccc(F)cc4)CC5)nc3c2F)c2c(F)c(F)ccc2c1 (stereo not drawn) [Example 194]	1.1 nM					
COc1ccc([C@H]2CCC3(COc4nc(N5CC6CCC(C5)N6)c5cnc(-c6cc(O)cc7ccc(F)c(F)c67)c(F)c5n4)CCCN23)cc1OC(F)(F)F (stereo partly drawn) [Example 216]			1.6 nM			
Oc1cc(-c2ncc3c(N4CC5CCC(C4)N5)nc(OCC45CCCN4C(c4ccc(Cl)c(C(F)(F)F)c4)CC5)nc3c2F)c2c(F)c(F)ccc2c1 (stereo not drawn) [Example 227]			2.4 nM	245 ng·h/mL	52 ng/mL	
Nc1cc(Cl)c(C(F)(F)F)c(-c2ncc3c(N4CC5CCC(C4)N5)nc(OCC45CCCN4C(c4ccc(F)c(F)c4)CC5)nc3c2F)c1 (stereo not drawn) [Example 244]			6.4 nM			
